EC50 data for twelve molecules are collected here from patent publication US10562869B2, “Oxadiazole compounds” (REMYND NV, priority 2014, dated 2020).

Assay [1] relates to INS-1E cells. Nature of the assay: Cytokine-induced caspase-3/7 activation in INS-1E cells (beta cell stress/apoptosis model, Caspase-Glo 3/7). The class given is cell-based. As to conditions: Rattus norvegicus, cytokine mix (IFN-γ, IL-1β, TNF-α), 24 hours, caspase 3/7 activity, read-out: CYT EC50. An excerpt:
The INS-1E cell line, a rat insulinoma cell line, has been characterized extensively. INS-1E cells respond to glucose by secreting insulin and, unlike most other immortalized β-cell lines, they do this in a consistent manner over time. The cells are sensitive to hyperglycemia-, free fatty acid (FFA)-, and cytokine-induced stress. Prolonged stress ultimately leads to induction of apoptotic pathways and, if stress is not counter-acted, to apoptosis. Caspase-3 and -7 play a central role downstream where various apoptotic pathways merge. As such, activation (i.e. cleavage) of these caspases forms a relevant primary read-out to evaluate protective activity of compounds against stress-induced apoptosis.
To evaluate the efficacy of different compounds to prevent induction of apoptosis, an in vitro screen was developed in which INS-1E cells were exposed to a cytokine mix (IFN-γ, 5 ng/ml; IL-1β, 20 pg/ml; TNF-α, 0.25 ng/ml). The degree of induction of apoptosis was evaluated using a substrate for cleaved caspase-3 and -7, i.e. a proluminescent caspase-3/7 DEVD aminoluciferin substrate with a thermostable luciferase (Caspase-Glo® 3/7 assay; Promega, cat. G8092).
On day 0, INS-1E cells were plated in a white-walled 96-well microplate (Greiner, cat. 655098) at 20,000 cells per well in 100 μl complete medium (RPMI containing 11 mM glucose supplemented with 5% FCS, 100 IU/ml penicillin, 100 μg/ml streptomycin, 10 mM HEPES, 1 mM Sodium Pyruvate and 50 μM 2-Mercapto-ethanol). On day 2, 100 μl medium containing cytokines and compound dissolved in DMSO was added to the cells. Wells without cytokines containing DMSO and wells with cytokines and DMSO were included to evaluate the degree of caspase 3/7 activation by the cytokine mix. After 24 hours exposure to cytokines and/or compound, Caspase-Glo® 3/7 reagent was added to the cells and caspase activity was determined by measuring luminescence.
To evaluate compound efficacy, the “toxicity window” was calculated by subtracting caspase activity of wells without stressor from activity of wells with stressor but without compound. The amount of caspase activity in the latter wells was normalized to 1 and used as reference. Subsequently, caspase activity in the wells with stressor and varying concentrations of compound was calculated relative to the wells without compound. Plotting caspase activity vs the log 10 of the concentration of compound permitted calculation of the EC50 values for the compounds which typically lied between 0.0001 and 10 μM. Compounds with an EC50<10 μM were considered active.

The test system of assay [2] is M17_3SYN cells. Nature of the assay: Paraquat-induced cytotoxicity (LDH) in α-synuclein over-expressing M17_3SYN neuroblastoma cells. As to conditions: Homo sapiens, Neuroblastoma cell, 48 h, toxicity inhibition (LDH) in M17_3SYN cells challenged with 6 mM paraquat, 2 days; read-out: SYN EC50. The class given is cell-based, human. In short, it runs like this: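 Human BE-M17 neuroblastoma cells stably overexpressing wild-type α-synuclein challenged with paraquat (final 6 mM) for 2 days at 37 °C alongside compounds over a concentration range. Cytotoxicity as LDH released relative to total LDH; EC50 from dose-dependent inhibition curve.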

Broadly, the EC50 is the midpoint of the concentration-response curve. For `O=S(=O)(c1ccc(OC(F)F)cc1)N1CCN(c2nc(C3(c4cccc(Cl)c4)CC3)no2)CC1` [Cmpd136, 1-{3-[1-(3-Chloro-phenyl)-cyclopropyl]-[1,2,4]oxadiazol-5-yl}-4-(4-difluoromethoxy-benzenesulfonyl)-piperazine], the concentration giving a half-maximal response (EC50) was found to be 24 nM in assay [1] and 8 nM in assay [2].
The like results for `CSc1ccc(S(=O)(=O)N2CCN(c3nc(C(C)(C)c4ccc(F)cc4)no3)CC2)cc1` [Cmpd116, 1-{3-[1-(4-Fluoro-phenyl)-1-methyl-ethyl]-[1,2,4]oxadiazol-5-yl}-4-(4-methylsulfanyl-benzenesulfonyl)-piperazine] were, in that order, 26 nM and 7 nM.
Consider `CSc1ccc(S(=O)(=O)N2CCN(c3nc(C(F)(F)c4ccc(F)cc4)no3)CC2)cc1` [Cmpd151, 1-{3-[Difluoro-(4-fluoro-phenyl)-methyl]-[1,2,4]oxadiazol-5-yl}-4-(4-methylsulfanyl-benzenesulfonyl)-piperazine], for which the results for the EC50 in assay [1] and in assay [2] were 41 nM and 13 nM, respectively.
The like results for `COc1ccc(S(=O)(=O)N2CCC3(CC2)CN(c2nc(C4(c5ccc(F)cc5)CC4)no2)C3)cc1` [Cmpd213, 3-(1-(4-Fluorophenyl)cyclopropyl)-5-(7-((4-methoxyphenyl)sulfonyl)-2,7-diazaspiro[3.5]nonan-2-yl)-1,2,4-oxadiazole] were, in that order, 10 nM and 360 nM.
The like results for `COc1ccc(S(=O)(=O)N2CCN(c3nc(C4(c5ccc(F)cc5)CC4)no3)CC2)cc1` [Cmpd105, 1-{3-[1-(4-Fluoro-phenyl)-cyclopropyl]-[1,2,4]oxadiazol-5-yl}-4-(4-methoxy-benzenesulfonyl)-piperazine] were, in that order, 27 nM and 9 nM.
For `CCOc1ccc(S(=O)(=O)N2CCN(c3nc(C4(c5cccc(Cl)c5)CC4)no3)CC2)cc1` [Cmpd135, 1-{3-[1-(3-Chloro-phenyl)-cyclopropyl]-[1,2,4]oxadiazol-5-yl}-4-(4-ethoxy-benzenesulfonyl)-piperazine] the same measures were 129 nM and 28 nM.
In the case of `COc1ccc(S(=O)(=O)N2CCN(c3nc(C(C)(C)c4ccnc(C)c4)no3)CC2)cc1` [Cmpd195, 5-(4-((4-Methoxyphenyl)sulfonyl)piperazin-1-yl)-3-(2-(2-methylpyridin-4-yl)propan-2-yl)-1,2,4-oxadiazole], the EC50 in assay [1] stood at 52 nM; in assay [2] it was 70 nM.
As to `CCOc1ccc(S(=O)(=O)N2CCN(c3nc(C4(c5ccccc5)CC4)no3)CC2)cc1` [Cmpd121, 1-(4-Ethoxy-benzenesulfonyl)-4-[3-(1-phenyl-cyclopropyl)-[1,2,4]oxadiazol-5-yl]-piperazine], the EC50 in assay [1] was 186 nM; in assay [2], 10 nM.
The like results for `COc1ccc(S(=O)(=O)N2CCN(c3nc(C(F)(F)c4ccc(F)cc4)no3)CC2)cc1` [Cmpd146, 1-{3-[Difluoro-(4-fluoro-phenyl)-methyl]-[1,2,4]oxadiazol-5-yl}-4-(4-methoxy-benzenesulfonyl)-piperazine] were, in that order, 75 nM and 8 nM.
The like results for `CCOc1ccc(S(=O)(=O)N2CCN(c3nc(C4(c5ccc(F)cc5)CC4)no3)CC2)cc1` [Cmpd106, 1-(4-Ethoxy-benzenesulfonyl)-4-{3-[1-(4-fluoro-phenyl)-cyclopropyl]-[1,2,4]oxadiazol-5-yl}-piperazine] were, in that order, 99 nM and 65 nM.
The like results for `CSc1ccc(S(=O)(=O)N2CCN(c3nc(C(F)(F)c4ccc(Cl)cc4)no3)CC2)cc1` [Cmpd145, 1-{3-[(4-Chloro-phenyl)-difluoro-methyl]-[1,2,4]oxadiazol-5-yl}-4-(4-methylsulfanyl-benzenesulfonyl)-piperazine] were, in that order, 82 nM and 15 nM.
With `CSc1ccc(S(=O)(=O)N2CCN(c3nc(C(F)(F)c4ccccc4)no3)CC2)cc1` [Cmpd157, 1-[3-(Difluoro-phenyl-methyl)-[1,2,4]oxadiazol-5-yl]-4-(4-methylsulfanyl-benzenesulfonyl)-piperazine], the EC50 in assay [1] amounted to 498 nM; in assay [2], 4 nM.
